Source: patent US12343326B2, “Psychoactive medicines and their use for treating psychiatric and neurological conditions and disorders” (Transcend Therapeutics, Inc., priority 2021, dated 2025)
Read-outs that look alike come from different tables or passages of the source.

Legend:
Assay in all cases: β-arrestin based GPCR screen (PathHunter / GPCRmax), agonist mode
Type in all cases: cell-based
Parameters in all cases: host or cells: PathHunter cell lines
168 GPCRs [1] = biological target: 168 GPCRs (Homo sapiens, UniProt P51681); conditions: CCR5, CCR5, Agonist
Chain of 168 GPCRs (Homo sapiens, UniProt P51681) (P51681 whole entry): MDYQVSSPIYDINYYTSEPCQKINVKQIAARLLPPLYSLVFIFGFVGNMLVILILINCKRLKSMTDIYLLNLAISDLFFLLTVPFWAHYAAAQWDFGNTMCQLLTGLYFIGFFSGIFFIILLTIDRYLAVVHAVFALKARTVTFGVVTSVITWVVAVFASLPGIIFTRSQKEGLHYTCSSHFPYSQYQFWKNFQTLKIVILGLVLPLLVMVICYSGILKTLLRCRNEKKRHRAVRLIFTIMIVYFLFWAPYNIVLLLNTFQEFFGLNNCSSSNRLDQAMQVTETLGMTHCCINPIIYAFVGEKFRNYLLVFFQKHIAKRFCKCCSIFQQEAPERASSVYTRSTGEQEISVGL
Experimental: (§1) For agonist determination, cells were incubated with sample to induce response. […] Vehicle concentration was 1%.

168 GPCRs [2] = biological target: 168 GPCRs (Homo sapiens, UniProt P41597); conditions: CCR2, Agonist
Experimental: as §1

168 GPCRs [3] = biological target: T1, 168 GPCRs (Homo sapiens, UniProt P30939); conditions: HTR1F
T1 sequence (P30939 1-366): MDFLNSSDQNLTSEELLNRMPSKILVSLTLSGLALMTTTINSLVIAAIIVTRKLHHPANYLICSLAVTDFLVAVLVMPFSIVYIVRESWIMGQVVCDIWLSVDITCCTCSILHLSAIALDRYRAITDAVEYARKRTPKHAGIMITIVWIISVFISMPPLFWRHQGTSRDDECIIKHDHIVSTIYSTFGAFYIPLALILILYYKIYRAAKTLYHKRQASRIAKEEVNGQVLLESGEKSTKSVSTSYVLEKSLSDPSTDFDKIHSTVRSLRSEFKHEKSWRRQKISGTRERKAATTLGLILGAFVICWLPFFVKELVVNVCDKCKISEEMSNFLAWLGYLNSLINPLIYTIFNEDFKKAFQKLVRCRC
Experimental: as §1

168 GPCRs [4] = biological target: 168 GPCRs (Homo sapiens, UniProt P30550); conditions: GRPR
Chain of 168 GPCRs (Homo sapiens, UniProt P30550) (P30550 whole entry): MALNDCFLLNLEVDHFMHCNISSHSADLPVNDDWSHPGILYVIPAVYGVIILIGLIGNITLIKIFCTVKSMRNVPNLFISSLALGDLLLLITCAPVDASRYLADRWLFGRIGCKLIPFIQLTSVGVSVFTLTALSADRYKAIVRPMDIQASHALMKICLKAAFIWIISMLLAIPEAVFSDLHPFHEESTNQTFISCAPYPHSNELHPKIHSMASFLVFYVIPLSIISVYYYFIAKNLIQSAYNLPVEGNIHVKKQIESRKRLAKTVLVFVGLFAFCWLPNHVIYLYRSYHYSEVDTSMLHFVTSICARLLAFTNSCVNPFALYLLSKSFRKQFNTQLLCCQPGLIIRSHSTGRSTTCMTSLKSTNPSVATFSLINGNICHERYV
Experimental: as §1

168 GPCRs [5] = biological target: 168 GPCRs (Homo sapiens, UniProt O43193); conditions: MLNR
Experimental: as §1

168 GPCRs [6] = biological target: 168 GPCRs (Homo sapiens, UniProt P50391)
Chain of 168 GPCRs (Homo sapiens, UniProt P50391) (P50391 whole entry): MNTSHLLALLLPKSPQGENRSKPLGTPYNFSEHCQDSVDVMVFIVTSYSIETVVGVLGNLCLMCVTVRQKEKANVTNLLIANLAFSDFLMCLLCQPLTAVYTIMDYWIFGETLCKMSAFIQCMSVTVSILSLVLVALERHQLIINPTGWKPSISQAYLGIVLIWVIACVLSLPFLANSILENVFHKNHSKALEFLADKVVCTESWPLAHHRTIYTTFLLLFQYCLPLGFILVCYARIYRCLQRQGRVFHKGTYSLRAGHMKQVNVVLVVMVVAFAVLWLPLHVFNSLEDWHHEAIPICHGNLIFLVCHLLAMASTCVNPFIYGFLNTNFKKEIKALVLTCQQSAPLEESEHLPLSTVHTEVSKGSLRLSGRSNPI
Experimental: as §1

168 GPCRs [7] = biological target: 168 GPCRs (Homo sapiens, UniProt P25105); conditions: PTAFR
Experimental: as §1

168 GPCRs [8] = biological target: 168 GPCRs (Homo sapiens, UniProt P41968); conditions: MC3R
Chain of 168 GPCRs (Homo sapiens, UniProt P41968) (P41968 whole entry): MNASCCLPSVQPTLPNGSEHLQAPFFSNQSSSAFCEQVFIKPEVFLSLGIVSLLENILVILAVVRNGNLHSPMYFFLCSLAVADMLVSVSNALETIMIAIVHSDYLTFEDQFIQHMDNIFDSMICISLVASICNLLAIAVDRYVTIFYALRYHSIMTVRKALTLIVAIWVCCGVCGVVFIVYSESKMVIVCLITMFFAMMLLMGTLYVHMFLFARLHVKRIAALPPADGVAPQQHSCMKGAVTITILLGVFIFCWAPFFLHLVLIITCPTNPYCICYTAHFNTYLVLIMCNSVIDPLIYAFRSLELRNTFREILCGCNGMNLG
Experimental: as §1

168 GPCRs [9] = biological target: 168 GPCRs (Homo sapiens, UniProt Q13324)
Chain of 168 GPCRs (Homo sapiens, UniProt Q13324) (Q13324 whole entry): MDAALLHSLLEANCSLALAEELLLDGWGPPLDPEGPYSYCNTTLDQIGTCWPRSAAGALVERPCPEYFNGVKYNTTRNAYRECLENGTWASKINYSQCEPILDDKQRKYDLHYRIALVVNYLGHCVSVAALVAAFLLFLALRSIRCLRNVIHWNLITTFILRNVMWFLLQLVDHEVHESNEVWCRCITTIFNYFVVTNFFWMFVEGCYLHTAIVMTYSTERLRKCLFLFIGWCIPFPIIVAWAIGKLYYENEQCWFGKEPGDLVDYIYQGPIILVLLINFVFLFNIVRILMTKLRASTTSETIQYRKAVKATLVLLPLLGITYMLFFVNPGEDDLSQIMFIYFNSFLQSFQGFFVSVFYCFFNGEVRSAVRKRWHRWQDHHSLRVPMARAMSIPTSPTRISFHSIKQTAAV
Experimental: as §1

168 GPCRs [10] = biological target: 168 GPCRs (Homo sapiens, UniProt O95838); conditions: GLP2R
Chain of 168 GPCRs (Homo sapiens, UniProt O95838) (O95838 whole entry): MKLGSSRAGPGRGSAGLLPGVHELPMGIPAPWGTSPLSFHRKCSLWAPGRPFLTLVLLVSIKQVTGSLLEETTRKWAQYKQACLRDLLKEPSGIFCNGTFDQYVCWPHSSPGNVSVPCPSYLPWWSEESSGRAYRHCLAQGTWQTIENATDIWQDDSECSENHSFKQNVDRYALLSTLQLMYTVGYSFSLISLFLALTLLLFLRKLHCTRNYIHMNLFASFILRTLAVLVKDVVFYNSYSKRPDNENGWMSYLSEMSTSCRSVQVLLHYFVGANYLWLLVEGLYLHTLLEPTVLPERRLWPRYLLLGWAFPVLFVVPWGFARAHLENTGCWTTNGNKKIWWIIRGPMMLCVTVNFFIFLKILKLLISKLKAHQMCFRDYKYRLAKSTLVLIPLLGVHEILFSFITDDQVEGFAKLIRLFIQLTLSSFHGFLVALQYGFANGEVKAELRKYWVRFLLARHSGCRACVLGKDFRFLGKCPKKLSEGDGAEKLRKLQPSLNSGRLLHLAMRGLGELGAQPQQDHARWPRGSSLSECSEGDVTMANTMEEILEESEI
Experimental: as §1

168 GPCRs [11] = biological target: 168 GPCRs (Homo sapiens, UniProt P30988); conditions: Agonist
Chain of 168 GPCRs (Homo sapiens, UniProt P30988) (P30988 25-474): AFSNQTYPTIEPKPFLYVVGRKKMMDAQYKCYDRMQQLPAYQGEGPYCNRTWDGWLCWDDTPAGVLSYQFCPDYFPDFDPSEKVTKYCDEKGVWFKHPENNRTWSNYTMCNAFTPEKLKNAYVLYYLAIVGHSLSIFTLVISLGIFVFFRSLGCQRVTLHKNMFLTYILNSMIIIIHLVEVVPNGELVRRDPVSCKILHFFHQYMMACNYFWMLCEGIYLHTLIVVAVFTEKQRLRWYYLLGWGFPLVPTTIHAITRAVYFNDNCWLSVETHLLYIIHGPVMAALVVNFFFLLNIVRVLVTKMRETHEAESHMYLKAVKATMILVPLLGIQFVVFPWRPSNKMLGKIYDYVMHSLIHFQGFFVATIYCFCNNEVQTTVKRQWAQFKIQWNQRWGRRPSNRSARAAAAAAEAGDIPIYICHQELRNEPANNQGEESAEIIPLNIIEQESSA
Experimental: as §1

168 GPCRs [12] = biological target: 168 GPCRs (Homo sapiens, UniProt P51686); conditions: CCR9, Agonist
Chain of 168 GPCRs (Homo sapiens, UniProt P51686) (P51686 whole entry): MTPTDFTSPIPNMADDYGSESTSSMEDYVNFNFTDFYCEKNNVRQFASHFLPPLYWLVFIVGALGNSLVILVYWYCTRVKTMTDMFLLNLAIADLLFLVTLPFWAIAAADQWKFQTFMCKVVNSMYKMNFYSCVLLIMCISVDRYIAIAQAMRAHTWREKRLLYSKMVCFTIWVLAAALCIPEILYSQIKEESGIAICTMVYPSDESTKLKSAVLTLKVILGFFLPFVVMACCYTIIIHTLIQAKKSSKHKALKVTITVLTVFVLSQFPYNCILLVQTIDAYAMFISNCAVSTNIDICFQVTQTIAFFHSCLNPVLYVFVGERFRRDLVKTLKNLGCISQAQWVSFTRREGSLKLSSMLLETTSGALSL
Experimental: as §1

168 GPCRs [13] = biological target: 168 GPCRs (Homo sapiens, UniProt P47900)
Experimental: as §1

168 GPCRs [14] = biological target: 168 GPCRs (Homo sapiens, UniProt Q15722); conditions: LTB4R
Chain of 168 GPCRs (Homo sapiens, UniProt Q15722) (Q15722 whole entry): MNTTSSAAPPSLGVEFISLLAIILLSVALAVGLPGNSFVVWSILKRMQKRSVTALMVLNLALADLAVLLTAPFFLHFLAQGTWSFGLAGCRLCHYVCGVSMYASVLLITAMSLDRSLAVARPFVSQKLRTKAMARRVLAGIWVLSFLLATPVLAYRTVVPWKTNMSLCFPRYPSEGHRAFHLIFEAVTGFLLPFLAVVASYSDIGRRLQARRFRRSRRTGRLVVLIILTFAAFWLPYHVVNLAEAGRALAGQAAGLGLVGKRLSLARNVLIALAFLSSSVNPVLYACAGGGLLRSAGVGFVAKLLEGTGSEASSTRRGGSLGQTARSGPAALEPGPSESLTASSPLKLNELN
Experimental: as §1

168 GPCRs [15] = biological target: 168 GPCRs (Homo sapiens, UniProt P46092); conditions: CCR10, Agonist
Chain of 168 GPCRs (Homo sapiens, UniProt P46092) (P46092 whole entry): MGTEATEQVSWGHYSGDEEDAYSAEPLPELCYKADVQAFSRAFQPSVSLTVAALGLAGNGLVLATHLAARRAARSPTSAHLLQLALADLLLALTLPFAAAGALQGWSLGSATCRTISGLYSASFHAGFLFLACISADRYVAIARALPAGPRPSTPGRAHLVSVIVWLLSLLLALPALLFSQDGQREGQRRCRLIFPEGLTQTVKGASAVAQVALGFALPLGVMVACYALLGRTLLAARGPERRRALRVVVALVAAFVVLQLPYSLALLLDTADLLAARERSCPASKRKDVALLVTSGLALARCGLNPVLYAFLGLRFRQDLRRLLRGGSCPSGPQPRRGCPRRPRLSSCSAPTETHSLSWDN
Experimental: as §1

168 GPCRs [16] = biological target: 168 GPCRs (Homo sapiens, UniProt P41587)
Chain of 168 GPCRs (Homo sapiens, UniProt P41587) (P41587 24-438): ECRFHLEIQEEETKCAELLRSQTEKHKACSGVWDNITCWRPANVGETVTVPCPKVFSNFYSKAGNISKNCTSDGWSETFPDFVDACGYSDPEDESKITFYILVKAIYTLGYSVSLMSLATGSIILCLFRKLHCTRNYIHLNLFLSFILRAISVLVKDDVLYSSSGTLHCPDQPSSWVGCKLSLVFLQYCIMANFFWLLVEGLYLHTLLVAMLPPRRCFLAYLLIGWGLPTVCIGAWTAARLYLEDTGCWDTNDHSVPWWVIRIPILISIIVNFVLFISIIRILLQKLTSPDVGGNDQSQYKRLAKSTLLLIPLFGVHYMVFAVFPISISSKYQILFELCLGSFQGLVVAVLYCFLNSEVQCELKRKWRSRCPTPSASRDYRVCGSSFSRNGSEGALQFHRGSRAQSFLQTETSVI
Experimental: as §1

168 GPCRs [17] = biological target: 168 GPCRs (Homo sapiens, UniProt P41231)
Chain of 168 GPCRs (Homo sapiens, UniProt P41231) (P41231 whole entry): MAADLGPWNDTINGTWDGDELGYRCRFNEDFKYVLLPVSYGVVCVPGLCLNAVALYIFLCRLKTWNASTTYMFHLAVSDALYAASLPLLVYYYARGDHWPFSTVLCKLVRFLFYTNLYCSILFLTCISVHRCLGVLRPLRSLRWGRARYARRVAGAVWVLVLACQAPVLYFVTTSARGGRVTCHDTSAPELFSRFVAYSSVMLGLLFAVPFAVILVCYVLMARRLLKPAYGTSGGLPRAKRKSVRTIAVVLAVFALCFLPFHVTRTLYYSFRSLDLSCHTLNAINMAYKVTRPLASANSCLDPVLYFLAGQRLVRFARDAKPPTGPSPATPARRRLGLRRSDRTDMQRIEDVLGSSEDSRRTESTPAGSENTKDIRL
Experimental: as §1

168 GPCRs [18] = biological target: 168 GPCRs (Homo sapiens, UniProt Q9Y5N1)
Experimental: as §1

168 GPCRs [19] = biological target: 168 GPCRs (Homo sapiens, UniProt O95977)
Experimental: as §1

[20] = CALCR-RAMP2, read-out: % Activity

Compound: CNC(C)C(=O)c1ccc2c(c1)OCO2 (stereo not drawn) [methylone, 3,4-methylenedioxy-N-methylcathinone]
- activity at 1 µM (168 GPCRs [1]; 1 uM): -0.1%
- activity at 10 µM (168 GPCRs [1]; 10 uM): 0.3%
- activity at 1 µM (168 GPCRs [2]; 1 uM): -0.4%
- activity at 10 µM (168 GPCRs [2]; 10 uM): -0.5%
- activity at 10 µM (168 GPCRs [3]; Agonist mode, 10 uM): -3%
- activity at 1 µM (168 GPCRs [3]; Agonist, 1 uM): -4.4%
- activity at 10 µM (168 GPCRs [4]; Agonist mode, 10 uM): -0.1%
- activity at 1 µM (168 GPCRs [4]; Agonist, 1 uM): 0%
- activity at 10 µM (168 GPCRs [5]; Agonist mode, 10 uM): -1%
- activity at 1 µM (168 GPCRs [5]; Agonist, 1 uM): -1.5%
- activity at 10 µM (168 GPCRs [6]; PPYR1, Agonist mode, 10 uM): -1.2%
- activity at 1 µM (168 GPCRs [6]; PPYR1, Agonist, 1 uM): -1.7%
- activity at 10 µM (168 GPCRs [7]; Agonist mode, 10 uM): -2.6%
- activity at 1 µM (168 GPCRs [7]; Agonist, 1 uM): -1.3%
- activity at 10 µM (168 GPCRs [8]; Agonist mode, 10 uM): -1.8%
- activity at 1 µM (168 GPCRs [8]; Agonist, 1 uM): -3.2%
- activity at 10 µM (168 GPCRs [9]; CRHR2, Agonist mode, 10 uM): 0.9%
- activity at 1 µM (168 GPCRs [9]; CRHR2, Agonist, 1 uM): 0.9%
- activity at 10 µM (168 GPCRs [10]; Agonist mode, 10 uM): -13%
- activity at 1 µM (168 GPCRs [10]; Agonist, 1 uM): -1.5%
- activity at 1 µM (168 GPCRs [11]; [20]): 0.9%
- activity at 10 µM (168 GPCRs [11]; [20]): 1.6%
- activity at 1 µM (168 GPCRs [11]; CALCR-RAMP3): 7.9%
- activity at 10 µM (168 GPCRs [11]; CALCR-RAMP3): 7.1%
- activity at 1 µM (168 GPCRs [11]; CALCR, read-out: % Activity): -0.3%
- activity at 10 µM (168 GPCRs [11]; CALCR, read-out: % Activity): 0.2%
- activity at 1 µM (168 GPCRs [12]; 1 uM): -0.5%
- activity at 10 µM (168 GPCRs [12]; 10 uM): 0.2%
- activity at 10 µM (168 GPCRs [13]; P2RY1, Agonist mode, 10 uM): -4.1%
- activity at 1 µM (168 GPCRs [13]; P2RY1, Agonist, 1 uM): 2.2%
- activity at 10 µM (168 GPCRs [14]; Agonist mode, 10 uM): -0.8%
- activity at 1 µM (168 GPCRs [14]; Agonist, 1 uM): -0.3%
- activity at 1 µM (168 GPCRs [15]; 1 uM): -2%
- activity at 10 µM (168 GPCRs [15]; 10 uM): -1.8%
- activity at 10 µM (168 GPCRs [16]; VIPR2, Agonist mode, 10 uM): -0.3%
- activity at 1 µM (168 GPCRs [16]; VIPR2, Agonist, 1 uM): -0.4%
- activity at 10 µM (168 GPCRs [17]; P2RY2, Agonist mode, 10 uM): -2.7%
- activity at 1 µM (168 GPCRs [17]; P2RY2, Agonist, 1 uM): -2.1%
- activity at 10 µM (168 GPCRs [18]; HRH3, Agonist mode, 10 uM): -3.7%
- activity at 1 µM (168 GPCRs [18]; HRH3, Agonist, 1 uM): -3.4%
- activity at 10 µM (168 GPCRs [19]; EDG6, Agonist mode, 10 uM): 0.3%
- activity at 1 µM (168 GPCRs [19]; EDG6, Agonist, 1 uM): -1.7%
